Values of other authors as cited in patent US20110052580A1, “USE OF PICOPLATIN AND BEVACIZUMAB TO TREAT COLORECTAL CANCER” (Poniard Pharmaceuticals, Inc., priority 2008, published 2011).

Columns and labels:
[1] = tested on: xenotransplant models of colon cancer; conditions: mouse, in vivo
[2] = tested on: human vascular endothelial growth factor (VEGF)
[3] = tested on: metastatic colorectal cancer (MCRC); conditions: single agent therapy

Sequence of human vascular endothelial growth factor (VEGF) (P15692 207-311 limits assumed): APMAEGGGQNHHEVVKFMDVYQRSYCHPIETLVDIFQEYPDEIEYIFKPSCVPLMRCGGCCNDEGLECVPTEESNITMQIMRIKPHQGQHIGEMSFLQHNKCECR

Compound | Effect on metastatic disease progression [1] | Effect on microvascular growth [1] | Binding to and inhibition of VEGF [2] | Median survival [3] [months] | Progression-free survival, median [3] [months] | Response rate [3] [%]
bevacizumab: recombinant humanized monoclonal IgGl antibody that binds to and inhibits human vascular endothelial growth factor (VEGF) | inhibition of metastatic disease progression | reduction of microvascular growth | binds to and inhibits the biologic activity of human vascular endothelial growth factor (VEGF) | – | – | –
CCc1c2c(nc3ccc(OC(=O)N4CCC(N5CCCCC5)CC4)cc13)-c1cc3c(c(=O)n1C2)COC(=O)[C@]3(O)CC [irinotecan] | – | – | – | ~12 | 4.3 | 18
O=C1[O][Pt]2([NH][C@@H]3CCCC[C@H]3[NH]2)[O]C1=O [oxaliplatin] | – | – | – | ~14.5 | 4.0 | 12
